From patent US9340590B2 (priority 2011, dated 2016) come the findings set out here.

Common to all, as to test: cell-based
In assay [1] the target is T1, hNav1.7 (Homo sapiens, UniProt Q15858). To be noted: Nav1.7 Use IC50.
Assay [2] concerns the target T2, hNav1.5 (Homo sapiens, UniProt Q14524).
Assay [3] addresses T1, hNav1.7. It is filed as cell-based.
For assay [4], the target named is T2, hNav1.5. The conditions noted are these: IonWorks Quattro; clamped to −110 mV, depolarized to −10 mV, 5 min after compound; n=2; read-out: IWQ Use Nav1.5. In general terms: The patch-clamp technique gives a direct electrical read-out from membranes.
The target of assay [5] is hNav1.3 (Homo sapiens, UniProt Q9NY46). The conditions noted are these: IonWorks Quattro; clamped to −110 mV, depolarized to −10 mV, 5 min after compound; n=2; read-out: IWQ Use Nav1.3.

Read-outs that look alike come from different tables or passages of the source. Positions of bridges follow the written chain, without caps; N, C: chain ends. Non-standard residues stand in square brackets, D forms with d. Residues, ends and D or L forms follow the SMILES beside them. Lys(Me2) = CN(C)CCCC[C@H](N)C(=O)O; 2Pal = N[C@@H](Cc1ccccn1)C(=O)O

Sequence of hNav1.3 (Q9NY46 whole entry, looked up): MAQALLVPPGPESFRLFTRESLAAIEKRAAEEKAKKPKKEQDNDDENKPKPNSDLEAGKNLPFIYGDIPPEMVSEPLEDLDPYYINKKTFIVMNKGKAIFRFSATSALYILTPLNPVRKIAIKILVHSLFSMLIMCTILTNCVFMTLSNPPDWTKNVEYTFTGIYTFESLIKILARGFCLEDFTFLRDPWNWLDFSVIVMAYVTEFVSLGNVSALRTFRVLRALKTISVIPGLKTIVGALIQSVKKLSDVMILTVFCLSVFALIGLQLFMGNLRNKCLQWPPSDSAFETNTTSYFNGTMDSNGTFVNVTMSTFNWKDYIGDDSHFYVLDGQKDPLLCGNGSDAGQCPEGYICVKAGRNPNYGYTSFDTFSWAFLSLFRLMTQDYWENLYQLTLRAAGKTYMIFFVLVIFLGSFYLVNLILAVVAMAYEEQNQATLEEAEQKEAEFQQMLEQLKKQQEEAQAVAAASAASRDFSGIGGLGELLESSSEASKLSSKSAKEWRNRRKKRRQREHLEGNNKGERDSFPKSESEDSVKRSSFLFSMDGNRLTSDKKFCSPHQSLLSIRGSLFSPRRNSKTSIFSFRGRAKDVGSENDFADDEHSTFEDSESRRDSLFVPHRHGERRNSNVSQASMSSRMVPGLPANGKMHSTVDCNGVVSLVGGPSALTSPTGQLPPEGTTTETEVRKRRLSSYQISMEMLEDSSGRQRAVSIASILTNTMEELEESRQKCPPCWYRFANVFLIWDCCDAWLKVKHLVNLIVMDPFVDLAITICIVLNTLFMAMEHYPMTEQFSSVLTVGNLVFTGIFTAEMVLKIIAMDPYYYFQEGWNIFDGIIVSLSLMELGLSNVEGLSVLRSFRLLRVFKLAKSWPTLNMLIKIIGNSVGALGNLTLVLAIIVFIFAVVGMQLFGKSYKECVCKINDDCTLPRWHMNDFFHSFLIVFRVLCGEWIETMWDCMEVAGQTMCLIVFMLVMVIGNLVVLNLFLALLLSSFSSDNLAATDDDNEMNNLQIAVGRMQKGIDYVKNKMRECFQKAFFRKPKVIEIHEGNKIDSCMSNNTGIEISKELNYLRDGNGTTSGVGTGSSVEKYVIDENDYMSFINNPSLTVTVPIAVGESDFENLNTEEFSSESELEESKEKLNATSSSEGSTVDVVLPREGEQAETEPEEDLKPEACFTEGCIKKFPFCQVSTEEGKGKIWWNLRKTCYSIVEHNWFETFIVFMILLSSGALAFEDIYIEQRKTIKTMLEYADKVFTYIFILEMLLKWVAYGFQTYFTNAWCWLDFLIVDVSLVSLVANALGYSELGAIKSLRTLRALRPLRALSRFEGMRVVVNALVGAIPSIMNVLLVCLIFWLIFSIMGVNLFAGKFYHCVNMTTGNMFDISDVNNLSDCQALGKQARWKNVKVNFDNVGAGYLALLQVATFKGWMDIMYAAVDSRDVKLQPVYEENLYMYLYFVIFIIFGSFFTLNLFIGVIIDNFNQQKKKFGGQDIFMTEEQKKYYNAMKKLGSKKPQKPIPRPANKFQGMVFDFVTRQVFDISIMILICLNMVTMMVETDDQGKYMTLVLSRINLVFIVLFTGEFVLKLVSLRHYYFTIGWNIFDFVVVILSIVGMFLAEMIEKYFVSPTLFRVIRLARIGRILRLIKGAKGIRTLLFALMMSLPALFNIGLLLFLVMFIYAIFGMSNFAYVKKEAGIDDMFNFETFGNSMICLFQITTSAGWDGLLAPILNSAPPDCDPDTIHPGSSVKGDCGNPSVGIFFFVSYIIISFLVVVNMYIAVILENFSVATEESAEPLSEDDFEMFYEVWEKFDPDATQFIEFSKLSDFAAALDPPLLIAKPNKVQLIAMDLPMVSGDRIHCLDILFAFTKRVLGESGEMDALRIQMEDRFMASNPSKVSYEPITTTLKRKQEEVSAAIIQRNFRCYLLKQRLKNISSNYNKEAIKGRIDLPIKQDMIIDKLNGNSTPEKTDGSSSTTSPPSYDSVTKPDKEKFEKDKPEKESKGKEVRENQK
T2 sequence (Q14524 whole entry, looked up): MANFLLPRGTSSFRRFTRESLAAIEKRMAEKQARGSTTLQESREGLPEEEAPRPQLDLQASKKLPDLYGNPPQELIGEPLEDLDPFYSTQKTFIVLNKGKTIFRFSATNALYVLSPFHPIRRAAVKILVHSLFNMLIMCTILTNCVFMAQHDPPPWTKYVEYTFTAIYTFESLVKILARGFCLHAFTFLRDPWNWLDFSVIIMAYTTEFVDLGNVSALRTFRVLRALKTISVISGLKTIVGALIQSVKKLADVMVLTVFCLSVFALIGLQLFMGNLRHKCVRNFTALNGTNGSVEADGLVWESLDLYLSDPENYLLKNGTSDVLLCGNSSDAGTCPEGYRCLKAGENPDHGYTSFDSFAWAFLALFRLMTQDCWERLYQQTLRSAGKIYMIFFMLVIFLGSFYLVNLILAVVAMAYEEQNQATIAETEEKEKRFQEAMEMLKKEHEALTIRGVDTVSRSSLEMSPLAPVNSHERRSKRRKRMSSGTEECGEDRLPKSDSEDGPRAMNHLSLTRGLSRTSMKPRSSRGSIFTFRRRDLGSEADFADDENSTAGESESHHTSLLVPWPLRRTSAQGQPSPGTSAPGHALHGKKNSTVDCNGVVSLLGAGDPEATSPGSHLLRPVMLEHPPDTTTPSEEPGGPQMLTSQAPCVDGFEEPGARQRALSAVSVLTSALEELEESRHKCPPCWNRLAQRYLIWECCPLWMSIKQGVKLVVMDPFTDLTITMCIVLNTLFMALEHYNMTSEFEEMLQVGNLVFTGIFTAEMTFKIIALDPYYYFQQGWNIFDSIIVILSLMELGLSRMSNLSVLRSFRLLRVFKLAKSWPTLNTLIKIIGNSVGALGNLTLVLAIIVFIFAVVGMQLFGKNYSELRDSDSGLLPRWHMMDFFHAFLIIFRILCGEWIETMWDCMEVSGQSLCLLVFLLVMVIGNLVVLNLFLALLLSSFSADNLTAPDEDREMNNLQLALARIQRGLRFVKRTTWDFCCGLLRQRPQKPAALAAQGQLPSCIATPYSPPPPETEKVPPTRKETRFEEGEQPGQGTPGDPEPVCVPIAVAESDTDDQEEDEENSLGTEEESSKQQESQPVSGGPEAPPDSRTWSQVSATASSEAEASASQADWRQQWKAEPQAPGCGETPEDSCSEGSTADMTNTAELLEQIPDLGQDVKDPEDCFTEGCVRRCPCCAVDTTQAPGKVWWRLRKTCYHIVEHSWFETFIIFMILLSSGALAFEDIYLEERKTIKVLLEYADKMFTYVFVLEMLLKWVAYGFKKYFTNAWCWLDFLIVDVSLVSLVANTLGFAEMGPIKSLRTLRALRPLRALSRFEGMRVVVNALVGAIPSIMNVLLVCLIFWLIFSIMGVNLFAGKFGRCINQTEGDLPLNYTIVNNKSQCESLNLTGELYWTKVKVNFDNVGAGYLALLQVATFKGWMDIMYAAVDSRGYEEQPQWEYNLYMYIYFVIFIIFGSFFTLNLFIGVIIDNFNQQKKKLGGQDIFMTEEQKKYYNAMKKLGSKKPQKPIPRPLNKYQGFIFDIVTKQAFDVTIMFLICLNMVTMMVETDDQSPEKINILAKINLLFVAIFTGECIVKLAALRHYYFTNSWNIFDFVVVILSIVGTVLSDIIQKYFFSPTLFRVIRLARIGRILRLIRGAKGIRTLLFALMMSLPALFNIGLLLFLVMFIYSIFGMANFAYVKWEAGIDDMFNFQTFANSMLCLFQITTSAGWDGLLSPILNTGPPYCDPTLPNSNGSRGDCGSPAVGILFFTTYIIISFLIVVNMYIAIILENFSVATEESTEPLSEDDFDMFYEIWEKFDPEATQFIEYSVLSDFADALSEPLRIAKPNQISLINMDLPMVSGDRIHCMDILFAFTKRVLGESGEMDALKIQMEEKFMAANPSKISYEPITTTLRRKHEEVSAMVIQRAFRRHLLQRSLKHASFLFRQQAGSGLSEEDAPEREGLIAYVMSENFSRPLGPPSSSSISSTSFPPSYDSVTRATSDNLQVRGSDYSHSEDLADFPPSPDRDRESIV

In the case of `CC[C@H](C)[C@@H]1NC(=O)[C@@H]2CSSC[C@@H]3NC(=O)[C@H](C(C)C)NC(=O)[C@H](CC(C)C)NC(=O)[C@H](CC(N)=O)NC(=O)[C@@H]4CCCN4C(=O)[C@H](CCCNC(=N)N)NC(=O)[C@H](CSSC[C@H](NC(=O)[C@@H](N)CC(=O)O)C(=O)N[C@@H](CC(C)C)C(=O)NCC(=O)N[C@@H](Cc4ccccc4)C(=O)N[C@@H](CCSC)C(=O)N[C@@H](CCCNC(=N)N)C(=O)N[C@@H](CCCCN)C(=O)N2)NC(=O)[C@H](CSSC[C@@H](C(=O)N[C@@H](CCCCN)C(=O)N[C@@H](Cc2ccccn2)C(=O)N[C@H](C(=O)N[C@@H](Cc2ccccc2)C(N)=O)C(C)C)NC(=O)[C@H](Cc2c[nH]c4ccccc24)NC(=O)[C@H](CCCCN)NC(=O)[C@H](Cc2c[nH]cn2)NC(=O)[C@H]([C@@H](C)O)NC(=O)[C@H](CCCNC(=N)N)NC(=O)[C@H](CO)NC3=O)NC(=O)[C@H](CCCCN)NC(=O)[C@H](CC(=O)O)NC(=O)[C@H](CC(N)=O)NC(=O)[C@H](CC(=O)O)NC(=O)[C@@H]2CCCN2C1=O` [[2PAL32]GpTx-1(1-34)] (H-DCLGFMRKCIPDNDKCCRPNLVCSRTHKWCK[2Pal]VF-NH2; disulfide 2-17, 9-23, 16-30), the IC50 was 35 nM in assay [1] and > 10000 nM in assay [2].
On to `CC[C@H](C)[C@@H]1NC(=O)[C@@H]2CSSC[C@@H]3NC(=O)[C@H](C(C)C)NC(=O)[C@H](CC(C)C)NC(=O)[C@H](CC(N)=O)NC(=O)[C@@H]4CCCN4C(=O)[C@H](CCCNC(=N)N)NC(=O)[C@H](CSSC[C@H](NC(=O)[C@@H](N)CC(=O)O)C(=O)N[C@@H](CC(C)C)C(=O)NCC(=O)N[C@@H](Cc4ccccc4)C(=O)N[C@@H](CCSC)C(=O)N[C@@H](CCCNC(=N)N)C(=O)N[C@@H](CCCCN)C(=O)N2)NC(=O)[C@H](CSSC[C@@H](C(=O)N[C@@H](CCCCN)C(=O)N[C@@H](Cc2ccc(O)cc2)C(=O)N[C@H](C(=O)N[C@@H](Cc2ccccc2)C(N)=O)C(C)C)NC(=O)[C@H](Cc2c[nH]c4ccccc24)NC(=O)[C@H](CCCCN)NC(=O)[C@H](Cc2cnc[nH]2)NC(=O)[C@H]([C@@H](C)O)NC(=O)[C@H](C)NC(=O)[C@H](CO)NC3=O)NC(=O)[C@H](CCCCN)NC(=O)[C@H](CC(=O)O)NC(=O)[C@H](CC(N)=O)NC(=O)[C@H](CC(=O)O)NC(=O)[C@@H]2CCCN2C1=O` [[Ala25]GpTx-1(1-34)] (H-DCLGFMRKCIPDNDKCCRPNLVCSATHKWCKYVF-NH2; disulfide 2-17, 9-23, 16-30), for which the IC50 in assay [1] was 12 nM; in assay [2] it was 10000 nM.
As for `CC[C@H](C)[C@@H]1NC(=O)[C@@H]2CSSC[C@@H]3NC(=O)[C@H](C(C)C)NC(=O)[C@H](CC(C)C)NC(=O)[C@H](CC(N)=O)NC(=O)[C@@H]4CCCN4C(=O)[C@H](CCCNC(=N)N)NC(=O)[C@H](CSSC[C@H](N)C(=O)N[C@@H](CC(C)C)C(=O)NCC(=O)N[C@@H](Cc4ccccc4)C(=O)N[C@@H](CCSC)C(=O)N[C@@H](CCCNC(=N)N)C(=O)N[C@@H](CCCCN)C(=O)N2)NC(=O)[C@H](CSSC[C@@H](C(=O)N[C@@H](CCCCN)C(=O)N[C@@H](Cc2ccc(O)cc2)C(=O)N[C@H](C(=O)N[C@@H](Cc2ccccc2)C(N)=O)C(C)C)NC(=O)[C@H](Cc2c[nH]c4ccccc24)NC(=O)[C@H](CCCCN)NC(=O)[C@H](Cc2c[nH]cn2)NC(=O)[C@H]([C@@H](C)O)NC(=O)[C@H](CCCNC(=N)N)NC(=O)[C@H](CO)NC3=O)NC(=O)[C@H](CCCCN)NC(=O)[C@H](CC(=O)O)NC(=O)[C@H](CC(N)=O)NC(=O)[C@H](CC(=O)O)NC(=O)[C@@H]2CCCN2C1=O` [SEQ ID NO: 108] (H-CLGFMRKCIPDNDKCCRPNLVCSRTHKWCKYVF-NH2; disulfide 1-16, 8-22, 15-29), the IC50 in assay [3] (IonWorks Quattro, clamped to −110 mV, depolarized to −10 mV, 5 min after compound, n=2, read-out: IWQ Use Nav1.7) turned out to be 70 nM; in assay [2] (read-out: Nav1.5 Use IC50) it was 4940 nM.
Consider `CC[C@H](C)[C@@H]1NC(=O)[C@@H]2CSSC[C@@H]3NC(=O)[C@H](C(C)C)NC(=O)[C@H](CC(C)C)NC(=O)[C@H](CC(N)=O)NC(=O)[C@@H]4CCCN4C(=O)[C@H](CCCNC(=N)N)NC(=O)[C@H](CSSC[C@H](NC(=O)[C@@H](N)CC(=O)O)C(=O)N[C@@H](CC(C)C)C(=O)N[C@@H](CCCNC(=N)N)C(=O)N[C@@H](Cc4ccccc4)C(=O)N[C@@H](CCSC)C(=O)N[C@@H](CCCNC(=N)N)C(=O)N[C@@H](CCCCN)C(=O)N2)NC(=O)[C@H](CSSC[C@@H](C(=O)N[C@@H](CCCCN)C(=O)N[C@@H](Cc2ccc(O)cc2)C(=O)N[C@H](C(=O)N[C@@H](Cc2ccccc2)C(N)=O)C(C)C)NC(=O)[C@H](Cc2c[nH]c4ccccc24)NC(=O)[C@H](CCCCN)NC(=O)[C@H](Cc2cnc[nH]2)NC(=O)[C@H]([C@@H](C)O)NC(=O)[C@H](CCCNC(=N)N)NC(=O)[C@H](CO)NC3=O)NC(=O)[C@H](CCCCN)NC(=O)[C@H](CC(=O)O)NC(=O)[C@H](CC(N)=O)NC(=O)[C@H](CC(=O)O)NC(=O)[C@@H]2CCCN2C1=O` [SEQ ID NO: 63] (H-DCLRFMRKCIPDNDKCCRPNLVCSRTHKWCKYVF-NH2; disulfide 2-17, 9-23, 16-30), for which the IC50 is 210 nM in assay [3], 20100 nM in assay [4], 230 nM in assay [5] and 5000 nM in assay [2].
In assay [2], `CC[C@H](C)[C@@H]1NC(=O)[C@@H]2CSSC[C@@H]3NC(=O)[C@H](C(C)C)NC(=O)[C@H](CC(C)C)NC(=O)[C@H](CC(N)=O)NC(=O)[C@@H]4CCCN4C(=O)[C@H](CCCCN(C)C)NC(=O)[C@H](CSSC[C@H](NC(=O)[C@@H](N)CC(=O)O)C(=O)N[C@@H](CC(C)C)C(=O)NCC(=O)N[C@@H](Cc4ccccc4)C(=O)N[C@@H](CCSC)C(=O)N[C@@H](CCCNC(=N)N)C(=O)N[C@@H](CCCCN)C(=O)N2)NC(=O)[C@H](CSSC[C@@H](C(=O)N[C@@H](CCCCN)C(=O)N[C@@H](Cc2ccc(O)cc2)C(=O)N[C@H](C(=O)N[C@@H](Cc2ccccc2)C(N)=O)C(C)C)NC(=O)[C@H](Cc2c[nH]c4ccccc24)NC(=O)[C@H](CCCCN)NC(=O)[C@H](Cc2cnc[nH]2)NC(=O)[C@H]([C@@H](C)O)NC(=O)[C@H](CCCNC(=N)N)NC(=O)[C@H](CO)NC3=O)NC(=O)[C@H](CCCCN)NC(=O)[C@H](CC(=O)O)NC(=O)[C@H](CC(N)=O)NC(=O)[C@H](CC(=O)O)NC(=O)[C@@H]2CCCN2C1=O` [[K(Me2)18]GpTx-1(1-34)] (H-DCLGFMRKCIPDNDKCC[Lys(Me2)]PNLVCSRTHKWCKYVF-NH2; disulfide 2-17, 9-23, 16-30) returned an IC50 of 10000 nM.
As for `CC[C@H](C)[C@@H]1NC(=O)[C@@H]2CSSC[C@@H]3NC(=O)[C@H](C(C)C)NC(=O)[C@H](CC(C)C)NC(=O)[C@H](CC(N)=O)NC(=O)[C@@H]4CCCN4C(=O)[C@H](CCCNC(=N)N)NC(=O)[C@H](CSSC[C@H](NC(=O)[C@@H](N)CC(=O)O)C(=O)N[C@@H](CC(C)C)C(=O)NCC(=O)N[C@@H](CC(C)C)C(=O)N[C@@H](CCSC)C(=O)N[C@@H](CCCNC(=N)N)C(=O)N[C@@H](CCCCN)C(=O)N2)NC(=O)[C@H](CSSC[C@@H](C(=O)N[C@@H](CCCCN)C(=O)N[C@@H](Cc2ccc(O)cc2)C(=O)N[C@H](C(=O)N[C@@H](Cc2ccccc2)C(N)=O)C(C)C)NC(=O)[C@H](Cc2c[nH]c4ccccc24)NC(=O)[C@H](CCCCN)NC(=O)[C@H](Cc2cnc[nH]2)NC(=O)[C@H]([C@@H](C)O)NC(=O)[C@H](CCCNC(=N)N)NC(=O)[C@H](CO)NC3=O)NC(=O)[C@H](CCCCN)NC(=O)[C@H](CC(=O)O)NC(=O)[C@H](CC(N)=O)NC(=O)[C@H](CC(=O)O)NC(=O)[C@@H]2CCCN2C1=O` [SEQ ID NO: 267] (H-DCLGLMRKCIPDNDKCCRPNLVCSRTHKWCKYVF-NH2; disulfide 2-17, 9-23, 16-30), the IC50 in assay [3] was found to be 170 nM; in assay [4], 7400 nM; in assay [5] it was 300 nM; in assay [1], 7 nM.
As to `CC[C@H](C)[C@@H]1NC(=O)[C@@H]2CSSC[C@@H]3NC(=O)[C@H](C(C)C)NC(=O)[C@H](CC(C)C)NC(=O)[C@H](CC(N)=O)NC(=O)[C@@H]4CCCN4C(=O)[C@H](CCCNC(=N)N)NC(=O)[C@H](CSSC[C@H](NC(=O)[C@@H](N)CC(=O)O)C(=O)N[C@@H](CC(C)C)C(=O)N[C@@H](CCCCN)C(=O)N[C@@H](Cc4ccccc4)C(=O)N[C@@H](CCSC)C(=O)N[C@@H](CCCNC(=N)N)C(=O)N[C@@H](CCCCN)C(=O)N2)NC(=O)[C@H](CSSC[C@@H](C(=O)N[C@@H](CCCCN)C(=O)N[C@@H](Cc2ccc(O)cc2)C(=O)N[C@H](C(=O)N[C@@H](Cc2ccccc2)C(N)=O)C(C)C)NC(=O)[C@H](Cc2c[nH]c4ccccc24)NC(=O)[C@H](CCCCN)NC(=O)[C@H](Cc2cnc[nH]2)NC(=O)[C@H]([C@@H](C)O)NC(=O)[C@H](CCCNC(=N)N)NC(=O)[C@H](CO)NC3=O)NC(=O)[C@H](CCCCN)NC(=O)[C@H](CC(=O)O)NC(=O)[C@H](CC(N)=O)NC(=O)[C@H](CC(=O)O)NC(=O)[C@@H]2CCCN2C1=O` [SEQ ID NO: 39] (H-DCLKFMRKCIPDNDKCCRPNLVCSRTHKWCKYVF-NH2; disulfide 2-17, 9-23, 16-30), the IC50 in assay [3] was 200 nM; in assay [4] it was 9820 nM; in assay [5], 180 nM; in assay [2], 10600 nM.
